Measurements reported in patent US20160106743A1, “TOPOISOMERASE II POISONS AND METHODS OF MAKING AND USING SAME” (THE UNIVERSITY OF ROCHESTER, priority 2014, published 2016).
Entries after “also recorded” stand apart in the source; their conditions may differ.

Assays:
[1] = system: Noncancer MJT cells (primary foreskin fibroblasts); assay: MJT noncancer cell viability with and without doxorubicin; type: cell-based, human
[2] = system: yeast cells overexpressing TOP2; assay: Yeast culture growth rate, TOP2 overexpressed from a plasmid vector; type: cell-based; details: increasing concentrations of Compound 1, FIG. 4
Text: (§1) Yeast cultures overexpressing native TOP2 (TOP2) or an empty expression vector (empty) were exposed to increasing concentrations of Compound 1 (FIG. 4). […] This is an unusual property for a TOP2 poison, most or all of which are lethal at high concentrations.

[3] = system: yeast cells expressing native levels of Top2; assay: Yeast culture growth rate, native levels of TOP2 (empty expression vector); type: cell-based; details: FIG. 4
Text: as §1

[4] = system: Human HT1080 fibrosarcoma cells; assay: HT1080 cell viability, alone and combined with doxorubicin, vinblastine or etoposide; type: cell-based; parameters: viability of HT1080 cells, compound alone: dose or concentration left out as unconfirmed
Description: Human HT1080 fibrosarcoma cells were exposed for 48 hrs to DMSO (vehicle control), 0.5 μM doxorubicin, 0.5 nM vinblastine, and/or Compound 1 at the indicated concentrations (FIGS. 6A-6C, respectively). Viable cells remaining on the plates were quantified after 48 hrs. […] (FIG. 6B) Compound 1 enhances doxorubicin toxicity at concentrations as low as 2.5 μM. 10 μM Compound 1 enhances doxorubicin cytotoxicity several fold. […] The vinblastine results are inconsistent with Compound 1 acting by inhibition of multidrug resistance pumps, which, when inhibited, increase the toxicity of multiple cytotoxic drugs including vinblastine. […] Average values and standard deviation of the means are plotted. P-values determined by student t-test are shown for doxorubicin enhancement (B). DMSO (A) and doxorubicin (B) data were based on the average of 6 biological replicates. Vinblastine data (C) was based on three biological replicates.

[5] = system: Saccharomyces cerevisiae strain BY4741 overexpressing yeast TOP1; assay: Yeast dilution growth on agar media, cells overexpressing TOP1; type: cell-based; details: Compound 1 10 μM in 0.1% DMSO, growth recorded after 48 h, FIG. 3
Description: (§2) Three-fold dilutions of Saccharomyces cerevisiae strain BY4741 overexpressing yeast TOP1, TOP2, or TOP3 from plasmid vectors were plated on agar media containing either 0.1% DMSO or Compound 1 (10 μM) in 0.1% DMSO (FIG. 3). Growth was recorded after 48 h. TOP1, TOP2, and TOP3 overexpressing cells grew at approximately the same rate as cells carrying an empty vector (top panel). […] However, Compound 1 was toxic to cells overexpressing TOP2. This phenomenon is characteristic of TOP2 poisons that stabilize toxic Top2cc adducts.

Human Top2-α = molecular target: T1, Human Top2-α (Homo sapiens, UniProt P11388); assay: Human Top2-α decatenation of kinetoplastid DNA (gel electrophoresis, densitometry); type: biochemical; details: increasing concentrations of Compound 1, 37° C. for 15 min, FIG. 1
T1 construct: purchased Topogen, Inc; Port Orange Fla
Description: Human Top2-α decatenation of kinetoplastid DNA (kDNA) was visualized by gel electrophoresis. Human Top2-α (Topogen, Inc; Port Orange Fla.) was added to 0.2 μg of kDNA in the presence of 1% DMSO (vehicle control) without or with increasing concentrations of Compound 1. Reactions were incubated at 37° C. for 15 min and terminated by addition of an SDS buffer. Samples were resolved by 1% agarose 1×TAE gel electrophoresis and stained with ethidium bromide. Decatenated versus intact kDNA species were quantified by densitometry (FIG. 1).

purified yeast Top2 = molecular target: T2, purified yeast Top2 (Saccharomyces cerevisiae, UniProt P06786); assay: Plasmid DNA (pUC18) cleavage by purified yeast Top2 (double strand breaks, linear form); type: biochemical; details: 10 μM etoposide or 1, 10 or 100 μM Compound 1, 150 ng purified yeast Top2, FIG. 5
T2 sequence (P06786 1-1428): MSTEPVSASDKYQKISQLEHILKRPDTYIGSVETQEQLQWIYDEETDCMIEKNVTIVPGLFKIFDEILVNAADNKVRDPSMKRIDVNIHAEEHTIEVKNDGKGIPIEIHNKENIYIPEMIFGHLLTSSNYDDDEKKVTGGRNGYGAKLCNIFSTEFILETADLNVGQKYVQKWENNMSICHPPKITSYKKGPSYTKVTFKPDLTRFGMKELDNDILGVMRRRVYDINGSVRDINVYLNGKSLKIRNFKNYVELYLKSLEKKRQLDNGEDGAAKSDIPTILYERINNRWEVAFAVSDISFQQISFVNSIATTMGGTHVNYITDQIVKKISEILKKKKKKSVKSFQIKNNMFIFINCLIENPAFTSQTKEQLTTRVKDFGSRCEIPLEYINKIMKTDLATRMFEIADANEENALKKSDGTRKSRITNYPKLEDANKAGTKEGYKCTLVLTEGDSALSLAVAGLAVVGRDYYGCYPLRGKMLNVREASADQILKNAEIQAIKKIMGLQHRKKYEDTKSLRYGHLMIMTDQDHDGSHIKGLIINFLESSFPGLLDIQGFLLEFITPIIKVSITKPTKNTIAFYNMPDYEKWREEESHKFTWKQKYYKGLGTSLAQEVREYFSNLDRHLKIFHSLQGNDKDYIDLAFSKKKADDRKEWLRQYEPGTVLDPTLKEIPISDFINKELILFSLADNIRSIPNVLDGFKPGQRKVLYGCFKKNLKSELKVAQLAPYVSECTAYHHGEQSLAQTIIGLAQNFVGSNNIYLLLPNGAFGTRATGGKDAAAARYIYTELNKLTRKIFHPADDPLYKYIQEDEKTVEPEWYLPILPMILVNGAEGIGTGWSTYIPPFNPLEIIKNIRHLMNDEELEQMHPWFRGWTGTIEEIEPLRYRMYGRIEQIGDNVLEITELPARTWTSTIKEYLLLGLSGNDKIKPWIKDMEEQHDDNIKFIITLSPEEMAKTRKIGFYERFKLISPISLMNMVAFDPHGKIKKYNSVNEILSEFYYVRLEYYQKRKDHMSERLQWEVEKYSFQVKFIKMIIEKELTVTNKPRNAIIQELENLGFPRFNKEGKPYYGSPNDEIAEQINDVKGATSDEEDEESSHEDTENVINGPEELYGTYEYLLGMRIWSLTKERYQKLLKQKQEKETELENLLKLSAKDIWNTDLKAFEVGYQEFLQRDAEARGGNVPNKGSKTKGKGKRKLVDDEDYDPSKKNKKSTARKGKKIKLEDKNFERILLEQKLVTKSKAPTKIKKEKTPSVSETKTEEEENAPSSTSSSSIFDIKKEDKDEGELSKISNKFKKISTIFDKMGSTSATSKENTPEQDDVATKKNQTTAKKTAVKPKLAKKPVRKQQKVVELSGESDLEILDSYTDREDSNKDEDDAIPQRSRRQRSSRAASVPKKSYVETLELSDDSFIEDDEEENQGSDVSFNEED
Description: Supercoiled (sc) plasmid DNA (pUC18) was exposed to 10 μM etoposide or 1, 10 or 100 μM Compound 1 in the presence and absence of 150 ng of purified yeast Top2 as described (Nitiss et al. (2012) Curr Protoc. Pharmacol. Chapter 3: Unit 3.3) (FIG. 5). TOP2 poisons induce Top2cc adducts containing double strand breaks. Double strand DNA breaks convert supercoiled (sc) pUC18 to a linear (lin) form.

[6] = system: Saccharomyces cerevisiae strain BY4741 overexpressing yeast TOP3; assay: Yeast dilution growth on agar media, cells overexpressing TOP3; type: cell-based; details: Compound 1 10 μM in 0.1% DMSO, growth recorded after 48 h, FIG. 3
Description: as §2

[7] = system: Saccharomyces cerevisiae strain BY4741 overexpressing yeast TOP2; assay: Yeast dilution growth on agar media, cells overexpressing TOP2; type: cell-based; details: Compound 1 10 μM in 0.1% DMSO, growth recorded after 48 h, FIG. 3
Description: as §2

puc118-based plasmid DNA = assay: Topoisomerase I (Top1) DNA unwinding assay for intercalation; details: 15 min at 25° C., then 1 h with added Top1, FIG. 2
Description: Samples were resolved by electrophoresis through 1% agarose 1×TAE gel and species *, **, and *** quantitated by densitometry (FIG. 2). Top1 alone (Lane 2) converts the DNA to a relaxed form (**) and some residual intermediate relaxed species (***).

[8] = system: Saccharomyces cerevisiae strain BY4741 carrying an empty vector; assay: Yeast dilution growth on agar media, cells carrying an empty vector; type: cell-based; details: Compound 1 10 μM in 0.1% DMSO, growth recorded after 48 h, FIG. 3
Description: as §2

T1 sequence (P11388 whole entry): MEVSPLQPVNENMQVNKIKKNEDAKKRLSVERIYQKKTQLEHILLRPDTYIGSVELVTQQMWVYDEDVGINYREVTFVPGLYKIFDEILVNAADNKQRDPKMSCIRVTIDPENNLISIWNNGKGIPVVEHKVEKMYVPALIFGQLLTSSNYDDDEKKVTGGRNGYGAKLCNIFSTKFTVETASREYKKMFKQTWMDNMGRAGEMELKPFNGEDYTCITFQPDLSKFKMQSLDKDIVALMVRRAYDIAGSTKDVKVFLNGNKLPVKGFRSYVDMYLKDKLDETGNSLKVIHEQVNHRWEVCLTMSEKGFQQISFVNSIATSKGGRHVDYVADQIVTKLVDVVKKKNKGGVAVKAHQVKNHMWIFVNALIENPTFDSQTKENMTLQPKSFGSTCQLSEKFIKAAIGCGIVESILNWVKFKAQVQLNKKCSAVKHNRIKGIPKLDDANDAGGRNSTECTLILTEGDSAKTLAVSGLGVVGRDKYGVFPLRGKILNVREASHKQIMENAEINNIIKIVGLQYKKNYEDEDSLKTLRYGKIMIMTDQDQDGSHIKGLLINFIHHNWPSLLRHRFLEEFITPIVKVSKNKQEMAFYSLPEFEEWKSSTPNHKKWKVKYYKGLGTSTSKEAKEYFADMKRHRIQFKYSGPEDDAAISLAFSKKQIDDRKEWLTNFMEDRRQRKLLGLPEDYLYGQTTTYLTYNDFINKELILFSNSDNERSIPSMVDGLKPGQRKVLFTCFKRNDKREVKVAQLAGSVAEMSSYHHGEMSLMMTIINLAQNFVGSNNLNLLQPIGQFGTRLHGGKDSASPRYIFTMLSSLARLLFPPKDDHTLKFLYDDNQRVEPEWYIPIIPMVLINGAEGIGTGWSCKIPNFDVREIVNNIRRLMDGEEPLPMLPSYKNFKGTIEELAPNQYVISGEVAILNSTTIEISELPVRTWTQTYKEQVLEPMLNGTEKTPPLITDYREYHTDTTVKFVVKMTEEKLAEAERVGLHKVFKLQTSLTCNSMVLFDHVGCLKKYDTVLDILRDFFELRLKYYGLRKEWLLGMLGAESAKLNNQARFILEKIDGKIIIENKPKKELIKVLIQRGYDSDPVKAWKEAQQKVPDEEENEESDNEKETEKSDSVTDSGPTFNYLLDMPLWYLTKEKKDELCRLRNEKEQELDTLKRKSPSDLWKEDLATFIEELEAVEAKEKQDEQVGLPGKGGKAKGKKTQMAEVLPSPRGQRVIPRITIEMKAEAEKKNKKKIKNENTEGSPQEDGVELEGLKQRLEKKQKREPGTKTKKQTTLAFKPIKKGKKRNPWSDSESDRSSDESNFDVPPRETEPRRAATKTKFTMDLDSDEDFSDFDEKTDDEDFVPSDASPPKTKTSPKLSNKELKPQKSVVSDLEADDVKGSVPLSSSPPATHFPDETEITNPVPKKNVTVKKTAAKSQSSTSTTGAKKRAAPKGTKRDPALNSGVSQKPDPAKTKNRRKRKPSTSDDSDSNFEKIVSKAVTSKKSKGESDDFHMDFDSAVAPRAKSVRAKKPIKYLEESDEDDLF

Compound	toxicity to MJT cells, compound alone ([1]; performed as in Example 6, FIG. 7)	enhancement of doxorubicin toxicity in MJT cells ([1]; various concentrations of doxorubicin with and without Compound 1, FIG. 7)	growth in cells overexpressing TOP2 from a plasmid vector [2]	growth in cells expressing native levels of Top2 at high concentrations ([3]; concentrations as high as 100 μM)	growth rate in cells expressing native levels of Top2 ([3]; concentrations below 10 μM)	enhancement of doxorubicin cytotoxicity ([4]; 10 μM Compound 1, 0.5 μM doxorubicin, 48 hrs, FIG. 6B)	viability of HT1080 cells, compound alone ([4]; 48 hrs, DMSO vehicle, FIG. 6A)	lowest concentration enhancing doxorubicin toxicity ([4]; 48 hrs, with 0.5 μM doxorubicin, FIG. 6B)	enhancement of HT1080 cell killing at multiple doxorubicin concentrations ([4]; various concentrations of doxorubicin and Compound 1, FIG. 6D)	enhancement of vinblastine toxicity ([4]; with 0.5 nM vinblastine, 48 hrs, FIG. 6C)	growth of cells overexpressing TOP1 on agar [5]	inhibition of decatenation of kinetoplastid DNA by human Top2-α (Human Top2-α)	formation of the linear form of pUC18 (stable double strand breaks, Top2cc adducts) (purified yeast Top2)	growth of cells overexpressing TOP3 on agar [6]	growth of cells overexpressing TOP2 on agar [7]	unwinding of plasmid DNA in presence of Top1 (intercalation) (puc118-based plasmid DNA)	growth of cells carrying an empty vector on agar [8]
c1ccc2nc3c(nc2c1)[nH]c1ccccc13 [Compound 1, 6H-indolo[2,3-b]quinoxaline]	not itself toxic	nor does it enhance the toxicity of doxorubicin	almost completely arrests growth	cells continue to thrive	partial dose-dependent inhibition of growth rates	several fold	no effect on the viability	2.5 µM	dose-dependent enhancement	does not enhance vinblastine toxicity	no effect on the growth	inhibits human Top2-α at Micromolar Concentrations; also recorded: inhibited by increasing concentrations	induced yeast Top2 to form the linear form of pUC18	no effect on the growth	toxic	do not unwind the DNA	no effect on the growth
COc1cccc2c1C(=O)c1c(O)c3c(c(O)c1C2=O)C[C@@](O)(C(=O)CO)C[C@@H]3O[C@H]1C[C@H](N)[C@H](O)[C@H](C)O1 [doxorubicin]																DNA is unwound	
COc1cc([C@@H]2c3cc4c(cc3[C@@H](O[C@@H]3O[C@@H]5CO[C@@H](C)O[C@H]5[C@H](O)[C@H]3O)[C@H]3COC(=O)[C@H]23)OCO4)cc(OC)c1O [etoposide, reference compound]													induced yeast Top2 to form the linear form of pUC18			do not unwind the DNA	
